Laboratory results: patent US20250120942A1, “BRAIN FUNCTION IMPROVING AGENT” (OSAKA UNIVERSITY, priority 2021, published 2025)

Columns and labels:
[1] = tested on: mouse reared in long-term isolation; assay: Forced swimming test in mouse reared in long-term isolation (Test Example 6); format: in vivo, ddY mouse; settings: test 30 minutes after administration, 5 weeks isolation, FIG. 6
Description: The psychiatric disorder model mouse which was reared in isolation for 5 weeks was orally administered with the compound A and 30 minutes after the administration subjected to the Forced swimming test. The effect of improving depressive symptoms was examined.
The 3-weeks old male ddY mouse which was reared in isolation for 5 weeks in the same manner as in Test Example 3 was used for the test.
The compound A was dissolved in 2.5% DMSO solution in advance. After long-term isolated rearing the mice were divided into 3 groups of 7 mice and the administration groups of the compound A (the administration group of 30 mg/kg, the administration group of 10 mg/kg) and Vehicle group (the administration group of 2.5% DMSO solution) were set and the oral administration was carried out.
In 30 minutes after the oral administration, the forced swimming test was carried out in the same manner as in Test Example 5. The immobility time was measured during the test of 6 minutes and the depressive symptoms of the mouse was evaluated.
From the results obtained, the mean (Mean) and the standard error (SEM) were calculated. The significant difference was assessed between the compound A administration group and the Vehicle group by using Dunnett's test. The level of significance was set to *P<0.05. The vertical axis of the graph in FIG. 6 represents the immobility time during the test.

[2] = tested on: mouse reared in long-term isolation; assay: Novel object recognition test after long-term administration in feed during isolated rearing (Test Example 4); format: in vivo, ddY mouse; settings: MF powdery feed containing 7 mg/100 g for 5 weeks of isolation; FIG. 4(A),(B)
Description: The compound A was orally administered for a long time and the effect of preventing the onset of cognitive dysfunction caused by the long-term isolated rearing was examined.
3-weeks-old male ddY mice were purchased from Japan SLC, Inc. The mice were reared in the rearing chamber provided with air conditioner (under the condition that the temperature was 22° C.±1° C., the relative humidity was 50±10%, and the irradiation time was 12 hours (8:00 to 20:00)). The feeding method was that the commercially available MF powdery feed (manufactured by Oriental Yeast Co., ltd.) and tap water were taken freely. […]
After the long-term rearing of 5 weeks, the object cognitive function was evaluated by the same method as that described in Test Example 3 and the effect of preventing the onset of cognitive dysfunction by administering the compound A during the long-term rearing was examined.
From the results obtained, the mean (Mean) and the standard error (SEM) were calculated. The significant difference of exploratory time in each group was assessed by using Student's t-test and the significant differences between the control group and Vehicle group and between the administration group of compound A and Vehicle group of Discrimination index were assessed by using Turkey-Kramer's test. […]

O=C1CC[C@H](Cc2cc(O)cc(O)c2)O1 [compound A, (R)-5-(3,5-dihydroxyphenyl)-γ-valerolactone]
immobility time in forced swimming test versus vehicle group ([1]; oral 10 mg/kg): significantly reduced
immobility time in forced swimming test versus vehicle group ([1]; oral 30 mg/kg): significantly reduced
onset of cognitive dysfunction caused by long-term isolated rearing stress (exploratory time and Discrimination index) [2]: significantly inhibited
